From patent US20240207265A1, “TREATMENT OF CNS DISEASES WITH sGC STIMULATORS” (Tisento Therapeutics Inc., priority 2021, published 2024)
Blank lines part the entries; values can stand above or below the compound they belong to.

Columns and labels:
[1] = test system: sGC enzyme; assay: cGMP GloSensor cell-based assay, 384-well format (HEK293); set-up: species or system human; conditions: HEK293 GloSensor 40F cGMP cells, 10 μM DETA-NONOate, geometrical mean; read-out: Glo EC50
Text: Human embryonic kidney cells (HEK293) cells expressing GloSensor™ 40F cGMP (Part No: CS182801, Promega) were used to evaluate the activity of test compounds. The luminescent biosensors (engineered luciferase) that were incorporated into these cells detect cGMP formed by the compounds stimulating the sGC enzyme and emit luminescence.
cGMP GloSensor cells were maintained in Dulbecco's Modification of Eagle's Medium (DMEM) supplemented with fetal bovine serum (FBS, 10% final) and hygromycine (200 ug/ml). The day before assay, cells were plated in DMEM with 10% FBS in a 50 μL volume at a density of 1.5×10^4 cells/well in a poly-D-lysine coated 384-well flat white-bottom plate (Corning Cat No 35661). Cells were incubated overnight at 37° C. in a humidified chamber with 5% CO2. The next day, medium was removed and cells were replaced with 40 ul/well of GloSensor™, 2 mM (Promega Cat No E1291). Cells were treated for 90 minutes at 25° C. to allow the substrate to equilibrate in the cells. Test compounds and Diethylenetriamine NONOate (DETA-NONOate) was diluted to 3 mM (20×) in serum-free CO2 independent medium and serially diluted at 4× dilutions to create 5× dose curve from which 10 ul was added to the wells (x μM concentration for test compound solution and 10 μM concentration for DETA-NONOate solution; wherein x is one of the following final concentrations: 30 μM, 7.5 μM, 1.9 μM, 469 nM, 117 nM, 29.3 nM, 7.3 nM, 1.83 nM, 0.46 nM, 0.11 nM, 0.03 nM) For the kinetics studies, luminescense was measured right away for 0.2 sec per well with Envision (Perkin Elmer). For endpoint SAR screening, data were collected after 55 min incubation at room temperature.
Concentration response data were analyzed using a 4-parameter fit (log (agonist) vs. response-variable slope). The EC50 was interpolated from the curve fit and is defined as the concentration at which the compound elicits 50% of its maximal response. When the experiment was carried out multiple times for a given compound, the geometrical mean of all experiments is reported.

[2] = test system: normotensive rats; assay: Blood pressure effects in normotensive rats after acute oral dose; format: in vivo, rat; conditions: for Peak ΔVMAP (mm Hg): sodium salt in Milli-Q water, vehicle-adjusted MAP; for Time at Peak: time of peak ΔVMAP
Text: Male, normotensive Sprague Dawley rats were purchased from Charles River Laboratories. These rats have indwelling femoral artery catheters installed. Animals were harnessed to a tether system and attached to pressure transducers to monitor cardiovascular (CV) parameters, specifically mean arterial pressure (MAP) and heart rate (HR). Animals were acclimated to the system overnight and baseline CV parameters collected. […] A blood sample was collected from each animal through the catheter line at pre-dose and 2 hours post-dose for compound concentration quantification. Hemodynamic measures were recorded for ten hours post-dose. Fifty-four male rats were used for these studies and they were ordered to be received at a body weight range of 250-275 grams. They were single housed under controlled conditions of temperature (21±1° C.), relative humidity (36±1%) and placed in a 12-hr light-dark cycle (lights on at 6:00 AM and off at 6:00 PM) room at SmartLabs vivarium (21 Erie Street, Cambridge, MA) under protocol MIL-110. Animals were allowed ad libitum access to chow (LabDiet Prolab Isopro RMH 3000, St. Louis, MO) and water. Two sets of studies were carried out. […] […] Formulations prepared were thawed less than 4 hours before dosing and stored at room temperature or were made less than 2 hours before dosing and stored at room temperature.
This study utilized ADInstruments LabChart (v8) to collect hemodynamic data from conscious, freely moving rats tethered to a blood pressure transducer (Harvard Apparatus cat #APT300). Following an overnight acclimation to the tether and pressure transducer, animals were dosed following a 1-hr baseline recording period. Animals were administered a single oral (P.O.) dose of the sodium salt form of Compound I-14 or vehicle at a dose volume of 10 mL/kg. Data collection was continued for 10 hours post-dose.
ADInstruments LabChart (v8) was used to monitor and export hemodynamic data. Blood pressure and heart rate were continuously monitored, and data were collected at 1000 data points per second then averaged into 10-minute bins for analysis. Change from baseline MAP (ΔBMAP) and HR (ΔBHR) were calculated using the pre-dose baseline averaged over the 1-hr period prior to dosing using Microsoft Excel for Microsoft 365. This 10-minute bin dataset was used to determine peak ΔVMAP, time peak ΔVMAP, peak ΔVHR and time of peak ΔVHR. The dataset was further consolidated into 1-hr bins for the MAP and HR figures and the analysis of ΔBMAP, ΔBMAP, and ΔBHR. The definitions of these terms/abbreviations are summarized below:
Statistical analyses were performed in Graphpad Prism (v8). Significance, as compared to vehicle-treated rats, for ΔBMAP and ΔBHR data was determined by 2-way repeated measures ANOVA followed by a Dunnett's multiple comparisons test, if there was a missing data point, a mixed-effect analysis was utilized. Vehicle-adjusted MAP (ΔVMAP) was calculated by subtracting ΔBMAP of the vehicle group from the ΔBMAP of each dose group at each timepoint. Vehicle-adjusted HR (ΔVHR) was calculated in a similar manner to ΔVMAP.
Analogous studies to the ones described above were carried out with Compound I-20. […] A blood sample was collected from each animal through the catheter line at pre-dose and 2 hours post-dose for compound concentration quantification. Hemodynamic measures were recorded for ten hours post-dose.

Compound: Oc1nc(-c2cn3ccnc3c(Cc3ccccc3)n2)ncc1F [Compound I-2, 2-(8-Benzylimidazo[1,2-a]pyrazin-6-yl)-5-fluoropyrimidin-4-ol]
EC50 [1]: 100 to 1000 nM

Compound: Oc1nc(-c2cn3ccnc3c(Cc3cccc(F)c3F)n2)ncc1F [Compound I-4, 2-(8-(2,3-Difluorobenzyl)imidazo[1,2-a]pyrazin-6-yl)-5-fluoropyrimidin-4-ol]
maximal reduction of MAP from baseline (ΔBMAP) ([2]; formulated in PEG400, 10 mg/kg): 20 mm Hg
time after dosing of maximal/peak ΔBMAP ([2]; formulated in PEG400, 10 mg/kg): 50 min
EC50 [1]: 100 to 1000 nM

Compound: Oc1nc(-c2cn3c(F)cnc3c(Cc3cc(F)ccc3F)n2)ncc1F [Compound I-5]
EC50 [1]: ≤ 100 nM

Compound: Oc1nc(-c2cn3ccnc3c(Cc3cc(F)ccc3F)n2)ncc1Cl [Compound I-16, 5-chloro-2-(8-(2,5-difluorobenzyl)imidazo[1,2-a]pyrazin-6-yl)pyrimidin-4-ol]
EC50 [1]: ≤ 100 nM

Compound: Oc1nc(-c2cn3ccnc3c(Cc3ccccc3F)n2)ncc1F [Compound I-21]
EC50 [1]: 100 to 1000 nM

Compound: Oc1nc(-c2cn3ncnc3c(Cc3ccccc3F)n2)ncc1F [Compound I-23]
EC50 [1]: 100 to 1000 nM

Further lines, with some results ahead:

EC50 [1]: ≤ 100 nM
Compound: Cc1cc(F)c(Cc2nc(-c3ncc(F)c(O)n3)cn3ccnc23)cc1F [Compound I-14, 5-fluoro-2-(8-(2,5-difluoro-4-methylbenzyl)imidazo[1,2-a]pyrazin-6-yl)pyrimidin-4-ol]
Peak ΔVMAP (mm Hg) ([2]; 1 mg/kg single oral dose): −6.2 mm Hg
Time at Peak ([2]; 1 mg/kg single oral dose): 90 min
Peak ΔVMAP (mm Hg) ([2]; 3 mg/kg single oral dose): −10.1 mm Hg
Time at Peak ([2]; 3 mg/kg single oral dose): 70 min
Peak ΔVMAP (mm Hg) ([2]; 10 mg/kg single oral dose): −22.3 mm Hg
Time at Peak ([2]; 10 mg/kg single oral dose): 30 min
Peak ΔVMAP (mm Hg) ([2]; 30 mg/kg single oral dose): −24.4 mm Hg
Time at Peak ([2]; 30 mg/kg single oral dose): 30 min
effect on MAP from baseline and as adjusted from vehicle ([2]; single oral dose 3, 10, and 30 mg/kg): lowered MAP from baseline and as adjusted from vehicle
no effect dose on ΔBMAP ([2]; single oral dose, main effect analysis, simple effects analysis and AOC): 1 mg/kg

EC50 [1]: 100 to 1000 nM
Compound: Cc1cc(F)c(Cc2nc(-c3nccc(O)n3)cn3ccnc23)cc1F [Compound I-15, 2-(8-(2,5-difluoro-4-methylbenzyl)imidazo[1,2-a]pyrazin-6-yl)pyrimidin-4-ol]

EC50 [1]: ≤ 100 nM
Compound: Cc1cc(F)c(Cc2nc(-c3ncc(F)c(O)n3)cn3c(F)cnc23)cc1F [Compound I-18]

EC50 [1]: 100 to 1000 nM
Compound: Cc1cc(F)c(Cc2nc(-c3ncc(F)c(O)n3)cn3ncnc23)cc1F [Compound I-19, 5-Fluoro-2-(8-(2,5-difluoro-4-methylbenzyl)-[1,2,4]triazolo[1,5-a]pyrazin-6-yl)pyrimidin-4-ol]

EC50 [1]: ≤ 100 nM
Compound: Oc1nc(-c2cn3ccnc3c(Cc3cc(F)ccc3F)n2)ncc1F [Compound I-20, 5-fluoro-2-(8-(2,5-difluorobenzyl)imidazo[1,2-a]pyrazin-6-yl)pyrimidin-4-ol]
Peak ΔVMAP (mm Hg) ([2]; 1 mg/kg single oral dose): −14.3 mm Hg
Time at Peak ([2]; 1 mg/kg single oral dose): 20 min
Peak ΔVMAP (mm Hg) ([2]; 3 mg/kg single oral dose): −19.2 mm Hg
Time at Peak ([2]; 3 mg/kg single oral dose): 20 min
Peak ΔVMAP (mm Hg) ([2]; 10 mg/kg single oral dose): −20.2 mm Hg
Time at Peak ([2]; 10 mg/kg single oral dose): 30 min
Peak ΔVMAP (mm Hg) ([2]; 30 mg/kg single oral dose): −38.1 mm Hg
Time at Peak ([2]; 30 mg/kg single oral dose): 30 min
peak ΔBMAP ([2]; formulated in PEG400, 10 mg/kg): −26 mm Hg
time after dosing of maximal/peak ΔBMAP ([2]; formulated in PEG400, 10 mg/kg): 42 min
